Consider one molecule from patent US11446264B2, “Memory manipulation via modification of protein kinase C zeta activity” (THE RESEARCH FOUNDATION FOR THE STATE UNIVERSITY OF NEW YORK, priority 2017, dated 2022).

For series [1], the system named is hippocampal slices from wild-type mice. Kind of series: maintenance of LTP in hippocampal slices from wild-type mice. The format is cell-based, mouse. As to conditions: NSA 10 μM applied 3 h post-tetanization, FIG. 3. On the procedure: (§1) Acute mouse hippocampal slices (450 μm) were dissected, bathed in ice-cold dissection buffer, and sliced with a McIlwain tissue slicer in a cold room (4° C.). The dissection buffer contained (in mM): 125 NaCl, 2.5 KCl, 1.25 NaH2PO4, 26 NaHCO3, 11 glucose, 10 MgCl2, and 0.5 CaCl2, and was bubbled with 95% O2/5% CO2 to maintain the pH at 7.4. The slices were immediately transferred into an interface recording chamber (31.5±1° C.). The recording superfusate consisted of (in mM): 118 NaCl, 3.5 KCl, 2.5 CaCl2, 1.3 MgSO4, 1.25 NaH2PO4, 24 NaHCO3, and 15 glucose, bubbled with 95% O2/5% CO2, with a flow rate of 0.5 ml/min. […] Pathway independence was confirmed by the absence of paired-pulse facilitation between the two pathways. The high-frequency stimulation consisted of standard two 100 Hz-1 s tetanic trains, at 25% of spike threshold, spaced 20 s apart, which is optimized to produce a relatively rapid onset of protein synthesis-dependent late-LTP. The maximum slope of the rise of the fEPSP is analyzed on a PC using the WinLTP data acquisition program. Application of NSA (black bar) beginning 3 hr after application of high-frequency stimulation reversed the maintenance of LTP seen during this time period, which is known to require PKC zeta/PKM zeta activity.

For series [2], the system named is wild-type mice. Description: active place avoidance, retraining and retesting in a different context after NSA. The format is in vivo, mouse. The following applies: n's=5, FIG. 6. The text has this: Above, representative diagram of training protocol, similar to that described for FIG. 5. After training, memory erasure by NSA injection in hippocampus, and retention testing in one context, mice are immediately retrained and retested in a different context. NSA on relearning ([…] with repeated measurements). There is a significant interaction between the effects of treatment (control, NSA) and trials (pretraining, training, retention in two environments) (F5,40=4.41, P=0.0027). The main effect of treatment is F1,8=3.34, p=0.10. […] Thus, the effects NSA administration has on inhibiting memory are not due to generalized, permanent damage to neural substrates responsible for learning and memory.

Series [3] deals with PKCζ-null mice. Description: active place avoidance, long-term memory retention, PKC zeta/PKM zeta null mice. The format is in vivo, mouse. The following applies: 5 nmol in 0.5 μl/hippocampus, 1 day after training, FIG. 5. As for the experimental part:
(§2) A commercial computer-controlled active place avoidance system was used (Bio-Signal Group, Acton, Mass.). The position of the mouse on a 40 cm diameter circular arena rotating at 1 rpm was determined 30 times per second by video tracking from an overhead camera (Tracker, Bio-Signal Group). All experiments used the ‘Room+Arena−’ task variant that challenges the mouse on the rotating arena to avoid a shock zone that was a stationary 60° sector. A constant current foot-shock (60 Hz, 500 ms) was delivered after entering the shock zone for 500 ms and was repeated each 1500 ms until the mouse left the shock zone. The arena rotation periodically transported the animal into the shock zone, forcing it to actively avoid the location of shock. The shock amplitude was 0.2 or 0.3 mA, which was determined for each animal in the first session to be the minimum that elicited flinch or escape responses.
(§3) A clear wall made from Polyethylene Terephtalate Glycol-modified (PET-G) prevented the animal from jumping off the elevated arena surface. […] Every 33 ms, the software determined the mouse's position, whether it was in the shock zone, and whether to deliver shock. The time series of the tracked positions was analyzed offline (TrackAnalysis, Bio-Signal Group) to extract a number of end point measures. […]

Series [4] concerns wild-type mice. Description: active place avoidance, long-term memory retention, wild-type mice. The format is in vivo, mouse. The following applies: 5 nmol in 0.5 μl/hippocampus, 1 day after training, FIG. 5. On the procedure: as §2, §3
For series [5], the target named is T1, PKC iota/lambda (Homo sapiens, UniProt P41743).
T1 construct: purchased ProQinase GmbH (Freiburg, Germany)
T1 sequence (P41743 1-596): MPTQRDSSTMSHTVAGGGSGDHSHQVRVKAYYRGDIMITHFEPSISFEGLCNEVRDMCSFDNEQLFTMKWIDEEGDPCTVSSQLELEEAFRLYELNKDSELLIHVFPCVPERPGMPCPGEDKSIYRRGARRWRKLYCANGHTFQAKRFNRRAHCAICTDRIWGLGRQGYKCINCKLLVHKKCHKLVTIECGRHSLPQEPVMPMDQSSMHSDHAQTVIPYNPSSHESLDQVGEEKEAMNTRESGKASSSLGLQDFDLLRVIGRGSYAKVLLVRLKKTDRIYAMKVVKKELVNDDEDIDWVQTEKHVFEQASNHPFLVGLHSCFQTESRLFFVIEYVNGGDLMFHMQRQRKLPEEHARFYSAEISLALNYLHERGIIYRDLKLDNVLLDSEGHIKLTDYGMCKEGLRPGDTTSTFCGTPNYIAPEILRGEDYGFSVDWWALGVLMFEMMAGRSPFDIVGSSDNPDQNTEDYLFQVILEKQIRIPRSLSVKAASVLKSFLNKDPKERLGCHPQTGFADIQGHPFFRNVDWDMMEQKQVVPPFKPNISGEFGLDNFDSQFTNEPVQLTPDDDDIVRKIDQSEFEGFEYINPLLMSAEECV
Kind of series: kinase activity assay ([γ-32P]ATP, e-peptide substrate), PKC iota/lambda. The format is biochemical. As to conditions: at doses up to 10 μM. On the procedure: (§4) In separate experiments, PKC zeta and PKM zeta were recombinantly expressed and purified. PKC iota/lambda was purchased from ProQinase GmbH (Freiburg, Germany). The reaction mixture ([…] final volume) contained: 50 mM Tris-HCl (pH 7.4), 10 mM MgCl2, 1 mM DTT, […] e-peptide substrate (ERMRPRKRQGSVRRRV, AnaSpec, Freemont, Calif.), in the presence or absence of phosphatidylserine (5 mg/ml, Avanti Polar Lipids, Alabaster, Ala.), and PKC iota/lambda (184 ng, 0.2 pmol/min per assay) or PKM zeta (4 ng, 0.2 pmolmin-1/assay), in the presence or absence of NSA at concentrations given on the X axis. The reaction, initiated with the addition of […] (final concentration, ˜1-3 μCi [γ-32P]/assay), was for 30 min at 30° C., which is in the linear range for enzyme concentration (data not shown). The reaction was stopped by addition of […] of 100 mM cold ATP and 100 mM EDTA, and 40 ml of the reaction mixture was spotted onto phosphocellulose paper and counted by liquid scintillation. Activity was measured as the difference between counts incorporated in the presence and absence of enzyme. Autonomous kinase activity is defined as activity in the absence of phosphatidylserine. […] Thus, as disclosed herein, administering NSA inhibits activity of PKC zeta and PKM zeta.

Series [6] concerns the target T2, PKC zeta (Homo sapiens, UniProt Q05513).
T2 construct: made in house
T2 sequence (Q05513 1-592): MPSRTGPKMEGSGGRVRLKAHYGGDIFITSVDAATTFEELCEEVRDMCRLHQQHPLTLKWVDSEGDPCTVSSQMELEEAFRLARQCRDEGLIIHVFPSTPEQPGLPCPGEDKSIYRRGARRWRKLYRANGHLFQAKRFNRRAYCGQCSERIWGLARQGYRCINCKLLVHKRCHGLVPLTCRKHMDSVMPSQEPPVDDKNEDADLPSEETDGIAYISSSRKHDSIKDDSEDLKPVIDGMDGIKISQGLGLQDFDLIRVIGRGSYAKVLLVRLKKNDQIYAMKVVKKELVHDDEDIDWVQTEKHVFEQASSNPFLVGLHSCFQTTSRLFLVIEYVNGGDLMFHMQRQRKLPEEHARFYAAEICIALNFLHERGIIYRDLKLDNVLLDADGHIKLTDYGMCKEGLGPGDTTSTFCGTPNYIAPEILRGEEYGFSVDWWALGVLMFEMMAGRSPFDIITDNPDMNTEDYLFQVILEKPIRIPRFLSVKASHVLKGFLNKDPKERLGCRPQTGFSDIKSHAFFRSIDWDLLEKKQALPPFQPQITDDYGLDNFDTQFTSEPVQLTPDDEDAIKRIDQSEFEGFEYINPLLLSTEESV
Kind of series: kinase activity assay ([γ-32P]ATP, e-peptide substrate), PKC zeta. The format is biochemical. On the procedure:
as §4

Series [7] concerns hippocampal slices from mice lacking expression of PKC zeta/PKM zeta. Description: maintenance of LTP in hippocampal slices from PKC zeta/PKM zeta null mice. The format is cell-based, mouse. The following applies: FIG. 4. On the procedure:
as §1, with “activity. […]” for “activity.”

Structures are written as SMILES.

With `O=S(=O)(O)c1cc(O)c2c(S(=O)(=O)O)cc(S(=O)(=O)O)cc2c1` [NSA, 1-naphthol-3,6,8-trisulphonic acid], the “maintenance of LTP (fEPSP slope)” value was “reverses maintenance of LTP” in series [1] and “no effect on maintenance of LTP” in series [7]. Further, the “memory retention of the pre-injection training” value in series [2] (NSA injection in hippocampus) is “disrupts memory retention”. For the same molecule, the “memory retention of the post-injection training (different context)” value in series [2] (retrained and retested after NSA injection in hippocampus) is listed as “no effect”. The entries for the “retention of avoidance (time to first enter the shock zone)” value in series [3] and in series [4] were “did not affect retention testing” and “inhibited retention of avoidance”, respectively. The “effect on PKC iota/lambda kinase activity” value in series [5] was “without effect”. For the same molecule, the IC50 in series [6] (FIG. 2, mean±SEM, ns=3, 30 min at 30° C., read-out: IC50 as a negative modulator of PKC zeta/PKM zeta activity) lay within 100 to 200 nM. The “decrease of PKC zeta/PKM zeta activity” value in series [6] (FIG. 2, extent of decrease) was “approximately 50%”.
